# Tested on: MC38 MDOTS
# Test: Live/dead (AO/PI) staining of MDOTS in 3D microfluidic culture
# Type: cell-based, murine
# Details: Cmpd1 1 μM + αPD-1, 5 days; not significant vs single-agent PD-1
# Procedure: Fresh tumor specimens (murine and human patients) were received in media (DMEM) on ice and minced in a 10 cm dish (on ice) using sterile forceps and scalpel. Minced tumor was resuspended in DMEM (4.5 mM glucose, […] sodium pyruvate, 1:100 penicillin-streptomycin) (Coming CellGro, Manassas, VA)+10% FBS (Gemini Bio-Products, West Sacramento, CA), 100 U/mL collagenase type IV (Life Technologies, Carlsbad, CA), and 15 mM HEPES (Life Technologies, Carlsbad, CA), except for CT26 tumors that were prepared in RPMI. Samples were pelleted and resuspended in 10-20 mL media. Red blood cells were removed from visibly bloody samples using RBC Lysis Buffer (Boston Bio-Products, Ashland, MA). […]
# Dual labeling was performed by loading microfluidic device with Nexcelom ViaStain™ (fluorescent cell viability dye) AO/PI Staining Solution (Nexcelom, CS2-0106). Following incubation with the dyes (20 minutes at room temperature in the dark), images were captured on a Nikon Eclipse 80i fluorescence microscope equipped with Z-stack (Prior) and CoolSNAP CCD camera (Roper Scientific). […] Live and dead cell quantitation was performed by measuring total cell area of each dye. […]
smiles,measurement,value
"N#Cc1cc(-c2ncnc(Nc3ccc(N4CCN(C5COC5)CC4)cc3)n2)ccc1OC1CCOCC1 [Compound 1, 5-(4-((4-(4-(oxetan-3-yl)piperazin-1-yl)phenyl)amino)-1,3,5-triazin-2-yl)-2-((tetrahydro-2H-pyran-4-yl)oxy)benzonitrile]","ex vivo killing of MC38 MDOTS, combination treatment",enhanced
